The results in this text go back to publication PMC8206213, “An L-2-hydroxyglutarate biosensor based on specific transcriptional regulator LhgR” (Nature Communications, 2021).

For one experiment, the target named is T1, LHGFR0N0C.
T1 construct: FRET sensor: full-length LhgR between mTFP (N-terminus) and Venus (C-terminus); pETDuet-1, Ni-chelating purification
Kind of experiment: FRET titration of purified sensor with L-2-HG in 50 mM Tris-HCl pH 7.4, Venus/mTFP emission ratio (excitation 430 nm, emission 528/485 nm), Hill-type fit. It is filed as binding. As to conditions: SD, n = 3; read-out: apparent dissociation constant (Kd). How it is done:
(§1) Purified L-2-HG biosensors and different compounds were diluted by 50 mM Tris-HCl buffer (pH 7.4), mixed together in a black 96-well plate at a volume ratio of 3:1, and the fluorescence intensities were measured using an EnSight microplate reader (PerkinElmer, USA) with excitation at 430 nm, emission at 485 nm (mTFP) and 528 nm (Venus). The dose-response curves were fitted by OriginPro 2016 software (OriginLab) according to the following formula:1 R=Rmax+Rmin−Rmax/1+([L-2-HG]/Kd)^p where R, Rmin, and Rmax refer to the emission ratio of Venus to mTFP, ratio in the absence of L-2-HG, and ratio at saturation with L-2-HG, respectively. The [L-2-HG], Kd, and p refer to the L-2-HG concentration, apparent dissociation constant, and Hill slope, respectively. Emission spectra were recorded at 430 nm excitation, in steps of 2 nm. Excitation spectra were recorded using emission at 550 nm, excitation from 380 to 535 nm in steps of 2 nm.
(§2) Fig. 3 Design and optimization of the LHGFR. a Schematic representation of the predicted conformational change of LhgR-based L-2-HG biosensor LHGFR in the absence or presence of L-2-HG. […] The emission ratio of Venus to mTFP increased (430 nm excitation) after L-2-HG binding. c Heap map of the truncating the N-terminal and C-terminal amino acids of LhgR to ∆Rmax. […] The emission ratio changes of both biosensors were measured in the presence of 240 μM D-lactate, L-lactate, L-2-HG, D-2-HG, or different intermediates of the TCA cycle and L-lysine catabolism. g, h Reversal of L-2-HG binding with LHGFR by conversion of L-2-HG to 2-KG. […] All data shown are means ± s.d. (n = 3 independent experiments).
(§3) Supplementary Figure 6 Dose-response curves of purified LHGFR variants truncated three to seven C-terminal amino acids in LhgR for L-2-HG. Dose-response curves of LHGFR0N3C […]
(§4) concentrations (10 nM to 2 mM) of L-2-HG were indicated. The maximum ratio change (∆Rmax), apparent dissociation constant (Kd), and R2 were shown in each figure. All data shown are means ± s.d. (n = 3 independent experiments). Source data are provided as a […]

The target in experiment [1] is T2, LHGFR0N3C.
T2 construct: FRET sensor: LhgR truncated by three C-terminal amino acids between mTFP (N-terminus) and Venus (C-terminus)
The description is as above. It is filed as binding. Conditions: SD, n = 3; read-out: apparent dissociation constant (Kd). How it is done:
as §1, §2, §3, §4

Experiment [2] concerns the target T3, LHGFR0N7C.
T3 construct: FRET sensor: LhgR truncated by seven C-terminal amino acids between mTFP (N-terminus) and Venus (C-terminus)
Described as above. It counts as binding. Conditions: SD, n = 3; read-out: apparent dissociation constant (Kd). Here is the method: as §1, §2, §3, §4

Experiment [3] has as its target T2, LHGFR0N3C. Kind of experiment: FRET titration of purified sensor with L-2-HG (10 nM to 2 mM) added to filtered human serum, sensor in 50 mM Tris-HCl pH 7.4 mixed 3:1, Venus/mTFP emission ratio. It counts as binding. Conditions: SD, n = 3. Here is the method: as §1, with “The [L-2-HG], Kd, and p refer to the L-2-HG concentration, apparent dissociation constant, and Hill slope, respectively.” left out
(§5) In order to test the ability of LHGFR for quantitative analysis L-2-HG in different biological samples, purified LHGFR was diluted by 50 mM Tris-HCl (pH 7.4), while varying concentrations of L-2-HG were added into the serum and urine of a healthy adult and bacteria culture medium and filtered through a 0.22 μm filter, respectively. […] The mixtures of purified LHGFR and L-2-HG in different biological samples were then incubated in a black 96-well plate at a volume ratio of 3:1, and the emission ratios were determined using an EnSight microplate reader. […]

Experiment [4] addresses T3, LHGFR0N7C. Described as above. It counts as binding. Conditions: SD, n = 3. Here is the method: as §1, with “The [L-2-HG], Kd, and p refer to the L-2-HG concentration, apparent dissociation constant, and Hill slope, respectively.” left out
as §5

Experiment [5] concerns the target T2, LHGFR0N3C. Kind of experiment: FRET titration of purified sensor with L-2-HG (10 nM to 2 mM) added to human urine diluted with an equal volume of 50 mM Tris-HCl pH 7.4, mixed 3:1, Venus/mTFP emission ratio. It counts as binding. As to conditions: SD, n = 3. How it is done:
as §1, with “The [L-2-HG], Kd, and p refer to the L-2-HG concentration, apparent dissociation constant, and Hill slope, respectively.” left out
as §5

Experiment [6] has as its target T3, LHGFR0N7C. The experiment is described as above. It is filed as binding. As to conditions: SD, n = 3. How it is done:
as §1, with “The [L-2-HG], Kd, and p refer to the L-2-HG concentration, apparent dissociation constant, and Hill slope, respectively.” left out
as §5

Experiment [7] deals with T2, LHGFR0N3C. Kind of experiment: FRET titration of purified sensor with L-2-HG (10 nM to 2 mM) added to filtered bacterial culture medium, sensor in 50 mM Tris-HCl pH 7.4 mixed 3:1, Venus/mTFP emission ratio. It is filed as binding. As to conditions: SD, n = 3. Here is the method: as §1, with “The [L-2-HG], Kd, and p refer to the L-2-HG concentration, apparent dissociation constant, and Hill slope, respectively.” left out
as §5

For experiment [8], the target named is T3, LHGFR0N7C. The experiment is described as above. It is filed as binding. Conditions: SD, n = 3. How it is done:
as §1, with “The [L-2-HG], Kd, and p refer to the L-2-HG concentration, apparent dissociation constant, and Hill slope, respectively.” left out
as §5

The subject of experiment [9] is T2, LHGFR0N3C. Kind of experiment: Emission ratio of sensor in living carbon-starved E. coli BL21(DE3) versus exogenous L-2-HG (100 nM to 10 mM) at 60 min, 37 °C. It counts as cell-based. Conditions: read-out: apparent Kd of LHGFR0N3C expressed in E. coli BL21(DE3); SD, n = 3. Here is the method:
E. coli BL21(DE3) strains harboring either pETDuet-LHGFR0N3C, pETDuet-LHGFR0N7C, or pETDuet-LHGFR3N7C were grown to an OD600 of 0.6 in LB medium at 37 °C, after which the cells were induced overnight in the presence of 1 mM IPTG at 16 °C.
To characterize the sensitivity and specificity of LHGFR expressed in E. coli BL21(DE3), 90 μL cell suspensions following 8 h carbon starvation were mixed with 10 μL increasing concentrations of L-2-HG or other compounds, and then added into a black 96-well plate (total 100 μL/per well), the fluorescence intensities were determined using an EnSight microplate reader (PerkinElmer, USA) and the following instrument settings: excitation at 430 nm, emission at 485 nm (mTFP) and 528 nm (Venus), time intervals of 5 min, the temperature at 37 °C, and shake at 180 rpm. […] In order to analyze functions of CsiD and LhgO in endogenous L-2-HG anabolism and catabolism during carbon starvation, pETDuet-LHGFR0N3C, pETDuet-LHGFR0N7C, or pETDuet-LHGFR3N7C was transferred into E. coli MG1655(DE3) and its variants, and the assays were performed using the same procedure.

The subject of experiment [10] is T2, LHGFR0N3C. Kind of experiment: Emission ratio of cytosolic sensor in HEK293FT cells permeabilized with 10 uM digitonin versus L-2-HG (10 nM to 10 mM) in Hank's balanced salt solution with 20 mM HEPES. It counts as cell-based. Conditions: read-out: apparent Kd of LHGFR0N3C expressed in HEK293FT cells; SD, n = 3. Here is the method:
To characterize the sensitivity and specificity of LHGFR expressed in HEK293FT cells, cells were trypsinized 48 h following transfection and suspended in 1× Hank’s balanced salt solution supplemented with 20 mM HEPES. […] Digitonin at a concentration of 10 μM was used to induce cell permeabilization and deplete intracellular L-2-HG for in vivo response curves construction. Then, the fluorescence intensities were determined by a SpectraMax i3 fluorescence plate reader (Molecular Devices, USA) with excitation at 430 nm and emission at 485 nm (mTFP) and 528 nm (Venus). Basal L-2-HG concentration in HEK293FT cells under physiological conditions was determined by substituting the emission ratios of non-permeabilized HEK293FT cells into the calibrated in vivo response curves.

The subject of a further experiment is HEK293FT cells. Kind of experiment: Hypoxia-induced L-2-HG production in LHGFR-expressing HEK293FT cells with or without 5 mM DMαKG. As to conditions: 5 mM, hypoxic conditions, 24 h. It is filed as cell-based, human. Here is the method: HEK293FT cells were cultured in high-glucose Dulbecco’s modified eagle medium (DMEM) supplemented with 10% (vol/vol) fetal bovine serum (FBS), 100 units mL^−1 penicillin, and 100 μg mL^−1 streptomycin (all purchased from ThermoFisher, USA), and kept at 37 °C in humidified air containing 5% CO2. For hypoxia experiments, cells were kept in a compact O2 and CO2 subchamber controller (ProOx C21, BioSpherix, USA) at 2% O2, 5% CO2, and balanced with N2 for 24 h. For the construction of LHGFR expressing cell, HEK293FT cells were plated in 24-well plates so that they reached 70-90% confluency 24 h after plating, the medium was refreshed 2 h before transfection.
The preparation of cell suspensions and the measurement of emission ratios were performed using the same procedure. The background fluorescence was subtracted at each emission wavelength.

The target of experiment [11] is LhgR (Pseudomonas putida W619). Nature of the experiment: SEC; gel filtration on Superdex 200 10/300 GL against protein mass standards, compared with SDS-PAGE; 50 mM sodium phosphate, 150 mM sodium chloride, pH 7.2.
The target of experiment [12] is T3, LHGFR0N7C. Nature of the experiment: FRET titration of purified sensor with D-2-HG (10 nM to 2 mM) in 50 mM Tris-HCl pH 7.4, Venus/mTFP emission ratio (excitation 430 nm). It is filed as binding. Conditions: SD, n = 3; read-out: apparent Kd in response to D-2-HG. Here is the method:
Purified L-2-HG biosensors and different compounds were diluted by 50 mM Tris-HCl buffer (pH 7.4), mixed together in a black 96-well plate at a volume ratio of 3:1, and the fluorescence intensities were measured using an EnSight microplate reader (PerkinElmer, USA) with excitation at 430 nm, emission at 485 nm (mTFP) and 528 nm (Venus). The dose-response curves were fitted by OriginPro 2016 software (OriginLab) according to the following formula:1 R=Rmax+Rmin−Rmax/1+([L-2-HG]/Kd)^p where R, Rmin, and Rmax refer to the emission ratio of Venus to mTFP, ratio in the absence of L-2-HG, and ratio at saturation with L-2-HG, respectively. The [L-2-HG], Kd, and p refer to the L-2-HG concentration, apparent dissociation constant, and Hill slope, respectively. Emission spectra were recorded at 430 nm excitation, in steps of 2 nm. Excitation spectra were recorded using emission at 550 nm, excitation from 380 to 535 nm in steps of 2 nm. […]
column in the presence of only L-2-HG was used as the control. (c, d) Comparison of the […]
LHGFR0N7C (d). […]
response to D-2-HG (1.85 ± 0.91 mM; black line) than L-2-HG (7.22 ± 0.38 μM; red line). (e-j) Dose-response curves of LHGFR0N3C (e, g, and i) and LHGFR0N7C (f, h, and j) for increasing concentrations (10 nM to 2 mM) of L-2-HG were measured in the presence of 240 μM D-2-HG (e, f), 1 mM 2-KG (g, h), or 1 mM ATP (i, j). […]

Turning to `O=C(O)CC[C@H](O)C(=O)O` [L-2-HG, L-2-hydroxyglutarate], the Kd on LHGFR0N0C came out at 2.74 µM; at LHGFR0N3C [1] it was 29.3 µM; on LHGFR0N7C [2], 7.22 µM; on LHGFR0N3C [3], 27.8 µM; on LHGFR0N7C [4], 8.35 µM; on LHGFR0N3C [5] it was 29.5 µM. Also, the Kd at LHGFR0N7C [6] was determined as 7.77 µM; at LHGFR0N3C [7], 36.9 µM; on LHGFR0N7C [8], 6.65 µM; in the experiment on LHGFR0N3C [9], 892 µM; with LHGFR0N3C [10] it was 43.8 µM.

Consider `COC(=O)CCC(=O)C(=O)OC` [dimethyl-2-ketoglutarate], for which the “Effect on emission ratio of LHGFR0N3C” value with HEK293FT cells is recorded as “significantly increased the emission ratio of LHGFR0N3C under hypoxic conditions”.

As for LhgR (natural protein), in [11], the stoichiometry N (in general, the number of molecules, sites or subunits per partner or assembly) came to 2.

`O=C(O)CC[C@@H](O)C(=O)O` [D-2-HG, D-2-hydroxyglutarate]: at LHGFR0N7C [12], the Kd was determined as 1850 µM.
